Measurements from ChEMBL document CHEMBL1146905, “Synthesis and evaluation of phenoxy acetic acid derivatives as [corrected] anti-mycobacterial agents” (2006).
≈ marks a conversion by molar mass, not a printed value.

Key:
Type in all cases: functional
[1] = test system: Mycobacterium tuberculosis; assay: Antimycobacterial activity against Mycobacterium tuberculosis H37Rv by BACTEC-460 radiometric assay above 6.25 ug/ml
[2] = test system: Mycobacterium tuberculosis; assay: Antimycobacterial activity against Mycobacterium tuberculosis H37Rv by BACTEC-460 radiometric assay
[3] = test system: Mycobacterium tuberculosis; assay: Antimycobacterial activity against Mycobacterium tuberculosis H37Rv by BACTEC-460 radiometric assay at 6.25 ug/ml

Row | Structure (SMILES) | Inhibition [1] [%] | MIC [2] [µg/mL] | inhibition at 6.25 µg/mL [3] [%]
1 | COc1cc(C2=NN(C(=O)c3ccc([N+](=O)[O-])cc3)C3CCCC23)c(C)cc1OCC(=O)O (stereo not drawn) | 26 | > 6.25 | 
2 | COc1cc(C2=NN(C(=O)c3ccc([N+](=O)[O-])cc3)C(c3ccc(O)cc3)C2)c(C)cc1OCC(=O)O (stereo not drawn) | 74 | 6.25 (≈ 12.4 µM) | 
3 | COc1cc(C2=NN(C(=O)c3ccccc3)C3CCCC23)c(C)cc1OCC(=O)O (stereo not drawn) | 24 | > 6.25 | 
4 | COc1cc(C2=NN(C(=O)COc3ccc4ccccc4c3)C(Cc3ccccc3)C2)c(C)cc1OCC(=O)O (stereo not drawn) |  | 0.22 (≈ 0.408 µM) | 95
5 | COc1cc(C2=NN(C(=O)c3ccc([N+](=O)[O-])cc3)C(Cc3ccccc3)C2)c(C)cc1OCC(=O)O (stereo not drawn) | 64 | > 6.25 | 
6 | COc1cc(C2=NN(C(=O)Cc3ccccc3)C3CCCC23)c(C)cc1OCC(=O)O (stereo not drawn) | 21 | > 6.25 | 
7 | COc1cc(C2=NN(C(=O)COc3cccc4ccccc34)C3CCCC23)c(C)cc1OCC(=O)O (stereo not drawn) | 54 | > 6.25 | 
8 | COc1cc(C2=NN(C(=O)COc3cccc4ccccc34)C(c3ccc(O)cc3)C2)c(C)cc1OCC(=O)O (stereo not drawn) | 61 | > 6.25 | 
9 | COc1cc(C2=NN(C(=O)COc3ccccc3)C(c3ccc(O)cc3)C2)c(C)cc1OCC(=O)O (stereo not drawn) |  | 0.1 (≈ 0.204 µM) | 99
10 | COc1cc(C2=NN(C(=O)COc3ccccc3)C(Cc3ccccc3)C2)c(C)cc1OCC(=O)O (stereo not drawn) |  | > 6.25 | 94
11 | COc1cc(C2=NN(C(=O)Cc3ccccc3)C(Cc3ccccc3)C2)c(C)cc1OCC(=O)O (stereo not drawn) | 34 | > 6.25 | 
12 | COc1cc(C2=NN(C(=O)COc3ccc4ccccc4c3)C3CCCC23)c(C)cc1OCC(=O)O (stereo not drawn) | 91 | 6.12 (≈ 12.5 µM) | 
13 | COc1cc(C2=NN(C(=O)COc3ccc4ccccc4c3)C(c3ccc(O)cc3)C2)c(C)cc1OCC(=O)O (stereo not drawn) |  | 0.1 (≈ 0.185 µM) | 99
14 | COc1cc(C2=NN(C(=O)c3ccccc3)C(c3ccc(O)cc3)C2)c(C)cc1OCC(=O)O (stereo not drawn) | 72 | > 6.25 | 
15 | COc1cc(C2=NN(C(=O)COc3cccc4ccccc34)C(Cc3ccccc3)C2)c(C)cc1OCC(=O)O (stereo not drawn) | 18 | > 6.25 | 
16 | COc1cc(C2=NN(C(=O)Cc3ccccc3)C(c3ccc(O)cc3)C2)c(C)cc1OCC(=O)O (stereo not drawn) | 28 | > 6.25 | 
17 | COc1cc(C2=NN(C(=O)c3ccccc3)C(Cc3ccccc3)C2)c(C)cc1OCC(=O)O (stereo not drawn) | 12 | > 6.25 | 
18 | COc1cc(C2=NN(C(=O)COc3ccccc3)C3CCCC23)c(C)cc1OCC(=O)O (stereo not drawn) | 87 | > 6.25 | 
19 | NNC(=O)c1ccncc1 [ISONIAZID] |  | 0.1 (≈ 0.729 µM) | 96
